Measurements reported in ChEMBL document CHEMBL5150056, “Synthesis and antibiofilm evaluation of N-acyl-2-aminopyrimidine derivatives against Acinetobacter baumannii” (Bioorg Med Chem, 2022).

What follows are compounds tested on Acinetobacter baumannii (assay: Antibacterial activity against Acinetobacter baumannii S1 assessed as planktonic growth inhibition incubated for 18 to 24 hrs by CLSI protocol based assay). Details: time 18-24 hrs.
Assay type: functional
`CCCCCCCCCCCC(=O)Nc1ncccn1` showed an MIC of over 256 µg/mL.
Work on `CCCCCCCCCCCCCC(=O)Nc1nc(Cl)cc(NC)n1` yielded an MIC of over 256 µg/mL.
With `O=C(CCc1ccccc1)Nc1ncccn1` the MIC was over 256 µg/mL.
With `CCCCCCCCCCCCCC(=O)Nc1nccc(N)n1` the MIC was over 256 µg/mL.
For `O=C(Nc1ncccn1)c1ccccc1`, the MIC was over 256 µg/mL.
Compound `CCOC(=O)CCC(=O)Nc1ncccn1` has an MIC of over 256 µg/mL.
Work on `CCCCCCCCCCCCCC(=O)Nc1nccc(Cl)n1` yielded an MIC of over 256 µg/mL.
`O=C(COc1ccccc1)Nc1ncccn1` gave an MIC of over 256 µg/mL.
Work on `CCCCCCCCCCCCCC(=O)Nc1nc(C)cc(O)n1` yielded an MIC of over 256 µg/mL.
Compound `O=C(Nc1ncccn1)c1cccc2ccccc12` has an MIC of over 256 µg/mL.
Compound `CCCCCCCCCCCCCC(=O)Nc1ncccn1` has an MIC of over 256 µg/mL.
For `O=C(Cc1cccs1)Nc1ncccn1`, the MIC was over 256 µg/mL.
In the case of `O=C(Nc1ncccn1)OCc1ccccc1`, the MIC is reported as over 256 µg/mL.
Compound `CCCCCCCCCCCCCC(=O)Nc1nc(Cl)c(Cl)c(Cl)n1` has an MIC of over 256 µg/mL.
For `CCCCCCCCCCCCCC(=O)Nc1nc(Cl)cc(Cl)n1`, the MIC was over 256 µg/mL.
For `CC(C)(C)C(=O)Nc1ncccn1`, the MIC was over 256 µg/mL.
Work on `CCCCCCCCCCCCCC(=O)Nc1ncc(Cl)cn1` yielded an MIC of over 256 µg/mL.
`O=C(Nc1ncccn1)c1ccc([N+](=O)[O-])cc1` was tested, and the MIC was over 256 µg/mL.
Compound `CCCCCCCCCCCCCC(=O)Nc1ncc(Cl)c(Cl)n1` has an MIC of over 256 µg/mL.
`CCCCCCCCCCCCCC(=O)N1CCN(c2ncccn2)CC1` was tested, and the MIC was over 256 µg/mL.
`CCCCCCCCCCCCCC(=O)Nc1nc(Cl)cc(OC)n1` was tested, and the MIC was over 256 µg/mL.

These compounds were tested on Acinetobacter baumannii (assay: Antibiofilm activity against Acinetobacter baumannii S1 assessed as inhibition rate of biofilm formation at 100 uM incubated for 18 to 24 hrs by crystal violet staining based assay (reference value: 28.8 +/- 8.21%)). Details: time 18-24 hrs.
Assay type: functional
Parameters: scale not given: the % may be the effect or the level left
In the case of `CCCCCCCCCCCCCC(=O)Nc1nc(F)cc(F)n1`, the Activity is reported as 20.8%.
`CCCCCCCCCCCCCC(=O)Nc1nc(N)cc(F)n1` gave an Activity of 53.1%.
For `CCCCCCCCCCCC(=O)Nc1ncccn1`, the Activity was 19.1%.
With `CCCCCCCCCCCCCC(=O)Nc1nc(Cl)cc(NC)n1` the Activity was 27%.
For `O=C(CCc1ccccc1)Nc1ncccn1`, the Activity was -0.2%.
For `CCCCCCCCCCCCCC(=O)Nc1nccc(N)n1`, the Activity was 35.8%.
Work on `O=C(Nc1ncccn1)c1ccccc1` yielded an Activity of 28%.
Work on `CCOC(=O)CCC(=O)Nc1ncccn1` yielded an Activity of 19.1%.
For `CCCCCCCCCCCCCC(=O)Nc1nccc(Cl)n1`, the Activity was 44.9%.
In the case of `O=C(COc1ccccc1)Nc1ncccn1`, the Activity is reported as 18.2%.
For `CCCCCCCCCCCCCC(=O)Nc1nc(C)cc(O)n1`, the Activity was 37.8%.
Compound `O=C(Nc1ncccn1)c1cccc2ccccc12` has an Activity of 9.4%.
In the case of `CCCCCCCCCCCCCC(=O)Nc1ncccn1`, the Activity is reported as 36.3%.
Work on `O=C(Cc1cccs1)Nc1ncccn1` yielded an Activity of 5.5%.
With `O=C(Nc1ncccn1)OCc1ccccc1` the Activity was 24.5%.
`CCCCCCCCCCCCCC(=O)Nc1nc(Cl)c(Cl)c(Cl)n1` was tested, and the Activity was 32%.
In the case of `CCCCCCCCCCCCCC(=O)Nc1nc(Cl)cc(Cl)n1`, the Activity is reported as 63.1%.
`CC(C)(C)C(=O)Nc1ncccn1` showed an Activity of 12.3%.
In the case of `CCCCCCCCCCCCCC(=O)Nc1ncc(Cl)cn1`, the Activity is reported as 40.5%.
`O=C(Nc1ncccn1)c1ccc([N+](=O)[O-])cc1` showed an Activity of 25.1%.
With `CCCCCCCCCCCCCC(=O)Nc1ncc(Cl)c(Cl)n1` the Activity was 30.9%.
With `CCCCCCCCCCCCCC(=O)N1CCN(c2ncccn2)CC1` the Activity was 27.9%.
`CCCCCCCCCCCCCC(=O)Nc1nc(Cl)cc(OC)n1` was tested, and the Activity was 49.5%.
